Data set [1] addresses T1, human GIP R (Homo sapiens, UniProt P48546).
T1 construct: expressed in transfected cells
T1 sequence (P48546 22-466): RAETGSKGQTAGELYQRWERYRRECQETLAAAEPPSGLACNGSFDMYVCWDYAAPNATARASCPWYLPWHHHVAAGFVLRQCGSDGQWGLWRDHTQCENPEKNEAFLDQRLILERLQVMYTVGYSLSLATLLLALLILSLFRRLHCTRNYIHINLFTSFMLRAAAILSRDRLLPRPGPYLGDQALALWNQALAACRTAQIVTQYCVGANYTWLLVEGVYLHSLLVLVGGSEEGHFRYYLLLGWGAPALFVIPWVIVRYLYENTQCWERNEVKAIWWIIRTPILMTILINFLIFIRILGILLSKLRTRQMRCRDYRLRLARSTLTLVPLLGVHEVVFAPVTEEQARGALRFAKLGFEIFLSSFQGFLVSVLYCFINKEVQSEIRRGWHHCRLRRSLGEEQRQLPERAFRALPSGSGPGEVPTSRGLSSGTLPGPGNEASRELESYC
The data set can be described thus: Human GIP receptor (GIP R) activity assay, cAMP induction (AlphaScreen) in HEK293 cells. Type of data set: cell-based. As to conditions: read-out: hGIP-R cAMP EC50 average value. Summed up:
(§1)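 Stable HEK293 clones expressing human GIP R or GLP-1 R, seeded 1 day before; cells washed in Tyrode's buffer (10 mM HEPES, pH 7.4), stimulated, then lysed. cAMP measured by AlphaScreen bead competition (1 h, room temperature, dark). EC50 = concentration giving half-maximal cAMP elevation, from curves of absolute cAMP (nM) vs log concentration.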
(Bead proximity is the source of the signal in Alpha formats.)

Data set [2] has as its target T2, human GLP-1 R (Homo sapiens, UniProt P43220).
T2 construct: expressed in transfected cells
The data set can be described thus: Human GLP-1 receptor (GLP-1 R) activity assay, cAMP induction (AlphaScreen) in HEK293 cells. The format is cell-based. Summed up: as §1

The nature of data set [3]: Pharmacokinetics of selected compounds in mice. Type of data set: in vivo, C57BL/6J mice. Conditions: male, C57BL/6J, mouse, plasma. How it is done:
Pharmacokinetics of Selected Compounds in Mice
C57BL/6J mice (males with a body weight of approximately 25 g) were given either a single subcutaneous (s.c.) bolus or a single intravenous (i.v.) bolus of each peptide to be tested.
Following s.c. administration of the selected compounds (50, 100 or 200 nmol/kg), blood samples were drawn at 8 (eight) timepoints up to 72 hours post-dose. Following i.v. administration of the selected compounds (50, 100 or 200 nmol/kg), blood samples were drawn at 8 (eight) timepoints up to 48 hours post-dose. Blood samples were drawn by sublingual bleeding. The dosing vehicle was a phosphate buffer containing mannitol (pH 7.5).
At each sampling time point, samples from two mice were drawn, i.e. 16 mice were included for each compound and each administration route. The mice were euthanized immediately after blood sampling by cervical dislocation. Plasma samples were analyzed after solid phase extraction (SPE) or protein precipitation followed by liquid chromatography mass spectrometry (LC-MS/MS). Mean plasma concentrations were used for calculation of the pharmacokinetic parameters using the non-compartmental approach in Phoenix WinNonlin 6.3. Plasma terminal elimination half-life (T½) was determined as […] where λz is the magnitude of the slope of the log linear regression of the log concentration versus time profile during the terminal phase. Bioavailability was determined as AUCinf (s.c.)/AUCinf (i.v.)×100, where AUCinf is the area under the plasma concentration−time curve extrapolated to infinity (AUCinf=AUClast+Clast/λz, where Clast is the last observed plasma concentration). Tmax is the post-dose time where the maximal plasma concentration was observed.

Setting [4] is: Table 3, most comprehensive data.
[5] abbreviates: Table 3, most comprehensive data, read-out: hGLP-1-R cAMP EC50 average value.

Where two headings read alike, the source gives them in different places. *1 amine or outer side, *2 acyl side, *3 side chain or, on linkers, in order; H or OH if unused. Where a SMILES comes first, the peptide text is derived from it. Side-chain parts run from the residue outwards. [ ]: non-standard residue; d: D form. The star is where a group is joined. C20 diacid = O=C(O)CCCCCCCCCCCCCCCCCCC(=O)*; C18 diacid = O=C(O)CCCCCCCCCCCCCCCCC(=O)*; γGlu = O=C(O)[C@H](CCC(=O)[*:2])N[*:1]; AEEA = NCCOCCOCC(=O)O; Aib = CC(C)(N)C(=O)O

T2 sequence (P43220 24-463): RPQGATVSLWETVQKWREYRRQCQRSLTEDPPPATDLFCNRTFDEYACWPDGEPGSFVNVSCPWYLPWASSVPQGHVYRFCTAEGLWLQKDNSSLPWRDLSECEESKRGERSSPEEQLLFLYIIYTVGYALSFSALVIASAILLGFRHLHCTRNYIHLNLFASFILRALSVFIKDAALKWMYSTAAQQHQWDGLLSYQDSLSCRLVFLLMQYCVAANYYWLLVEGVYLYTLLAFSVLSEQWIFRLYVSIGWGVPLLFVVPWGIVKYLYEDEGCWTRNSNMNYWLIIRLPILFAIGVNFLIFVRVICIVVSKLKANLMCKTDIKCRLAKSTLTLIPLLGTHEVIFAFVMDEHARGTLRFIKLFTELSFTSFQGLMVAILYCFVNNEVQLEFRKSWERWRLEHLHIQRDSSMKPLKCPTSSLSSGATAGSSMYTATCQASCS

The term EC50 denotes the concentration giving half of the maximal effect. As usually defined, the half-life is how long it takes for the measured level to halve. By bioavailability is commonly meant dose-corrected exposure relative to a reference, in per cent. A higher bioavailability goes with good availability. As a reminder, the Tmax is the time from dosing to the highest level. Take `CC[C@H](C)[C@H](NC(=O)[C@H](CO)NC(=O)[C@H](Cc1ccc(O)cc1)NC(=O)[C@H](CC(=O)O)NC(=O)[C@H](CO)NC(=O)[C@@H](NC(=O)[C@H](Cc1ccccc1)NC(=O)[C@@H](NC(=O)CNC(=O)[C@H](CCC(=O)O)NC(=O)C(C)(C)NC(=O)[C@@H](N)Cc1ccc(O)cc1)[C@@H](C)O)[C@@H](C)O)C(=O)N[C@@H](Cc1ccc(O)cc1)C(=O)N[C@@H](CC(C)C)C(=O)N[C@@H](CC(=O)O)C(=O)N[C@@H](CCCCN)C(=O)N[C@@H](CCCCNC(=O)COCCOCCNC(=O)COCCOCCNC(=O)CC[C@H](NC(=O)CCCCCCCCCCCCCCCCC(=O)O)C(=O)O)C(=O)N[C@@H](C)C(=O)N[C@@H](CCC(N)=O)C(=O)N[C@@H](CCCNC(=N)N)C(=O)N[C@@H](C)C(=O)N[C@@H](Cc1ccccc1)C(=O)N[C@H](C(=O)N[C@@H](CCC(=O)O)C(=O)N[C@@H](Cc1c[nH]c2ccccc12)C(=O)N[C@@H](CC(C)C)C(=O)N[C@@H](CC(C)C)C(=O)N[C@@H](C)C(=O)N[C@@H](CCC(N)=O)C(=O)NCC(=O)N1CCC[C@H]1C(=O)N[C@@H](CO)C(=O)N[C@@H](CO)C(=O)NCC(=O)N[C@@H](C)C(=O)N1CCC[C@H]1C(=O)N1CCC[C@H]1C(=O)N1CCC[C@H]1C(=O)N[C@@H](CO)C(N)=O)C(C)C` [Compound 1] (H-Y[Aib]EGTFTSDYSIYLDKK([AEEA-AEEA-γGlu-C18 diacid])AQRAFVEWLLAQGPSSGAPPPS-NH2): the EC50 in data set [1] (Table 2, HEK293 cells expressing human GIP R) was 0.0055 nM; in data set [1] (Table 2a, secondary assay study) it was 0.006 nM; in data set [1] (setting [4]), 0.006 nM; in data set [2] (Table 2, HEK293 cells expressing human GLP-1 R, read-out: hGLP1-R cAMP EC50 average value) it was 0.012 nM; in data set [2] (Table 2a, secondary assay study, read-out: hGLP1-R cAMP EC50 average value) it was 0.015 nM; in data set [2] (setting [5]) it was 0.015 nM. The half-life was 10.8 h in data set [3] (iv, single i.v. bolus, read-out: T½ terminal elimination half-life, i.v. (converted)) and 9.1 h in data set [3] (sc, single s.c. bolus, read-out: T½ terminal elimination half-life, s.c. (converted)). The compound further displayed a bioavailability in data set [3] (subcutaneous, AUCinf (s.c.)/AUCinf (i.v.)x100, values marked * capped to 100%) of 90%. The Tmax in data set [3] (sc, single s.c. bolus) worked out at 6 h.

As for `CC[C@H](C)[C@H](NC(=O)[C@H](CO)NC(=O)[C@H](Cc1ccc(O)cc1)NC(=O)[C@H](CC(=O)O)NC(=O)[C@H](CO)NC(=O)[C@@H](NC(=O)[C@H](Cc1ccccc1)NC(=O)[C@@H](NC(=O)CNC(=O)[C@H](CCC(=O)O)NC(=O)C(C)(C)NC(=O)[C@@H](N)Cc1ccc(O)cc1)[C@@H](C)O)[C@@H](C)O)C(=O)N[C@@H](Cc1ccc(O)cc1)C(=O)N[C@@H](CC(C)C)C(=O)N[C@@H](CC(=O)O)C(=O)N[C@@H](CCCCN)C(=O)N[C@@H](CCCCNC(=O)COCCOCCNC(=O)COCCOCCNC(=O)CC[C@H](NC(=O)CCCCCCCCCCCCCCCCCCC(=O)O)C(=O)O)C(=O)N[C@@H](C)C(=O)N[C@@H](CCC(N)=O)C(=O)N[C@@H](CCCNC(=N)N)C(=O)N[C@@H](C)C(=O)N[C@@H](Cc1ccccc1)C(=O)N[C@H](C(=O)N[C@@H](CCC(=O)O)C(=O)N[C@@H](Cc1c[nH]c2ccccc12)C(=O)N[C@@H](CC(C)C)C(=O)N[C@@H](CC(C)C)C(=O)N[C@@H](C)C(=O)N[C@@H](CCC(=O)O)C(=O)NCC(=O)N1CCC[C@H]1C(=O)N[C@@H](CO)C(=O)N[C@@H](CO)C(=O)NCC(=O)N[C@@H](C)C(=O)N1CCC[C@H]1C(=O)N1CCC[C@H]1C(=O)N1CCC[C@H]1C(=O)N[C@@H](CO)C(N)=O)C(C)C` [Compound 54] (H-Y[Aib]EGTFTSDYSIYLDKK([AEEA-AEEA-γGlu-C20 diacid])AQRAFVEWLLAEGPSSGAPPPS-NH2), the EC50 in data set [1] (setting [4]) was determined as 0.016 nM; in data set [2] (setting [5]), 0.012 nM.

As for `CC[C@H](C)[C@H](NC(=O)[C@H](CO)NC(=O)[C@H](Cc1ccc(O)cc1)NC(=O)[C@H](CC(=O)O)NC(=O)[C@H](CO)NC(=O)[C@@H](NC(=O)[C@H](Cc1ccccc1)NC(=O)[C@@H](NC(=O)CNC(=O)[C@H](CCC(=O)O)NC(=O)C(C)(C)NC(=O)[C@@H](N)Cc1ccc(O)cc1)[C@@H](C)O)[C@@H](C)O)C(=O)N[C@@H](C)C(=O)N[C@@H](CC(C)C)C(=O)N[C@@H](CC(=O)O)C(=O)N[C@@H](CCCCN)C(=O)N[C@@H](CCCCNC(=O)COCCOCCNC(=O)COCCOCCNC(=O)CC[C@H](NC(=O)CCCCCCCCCCCCCCCCCCC(=O)O)C(=O)O)C(=O)N[C@@H](C)C(=O)N[C@@H](CCC(N)=O)C(=O)N[C@@H](CCCNC(=N)N)C(=O)N[C@@H](C)C(=O)N[C@@H](Cc1ccccc1)C(=O)N[C@H](C(=O)N[C@@H](CCC(=O)O)C(=O)N[C@@H](Cc1c[nH]c2ccccc12)C(=O)N[C@@H](CC(C)C)C(=O)N[C@@H](CC(C)C)C(=O)N[C@@H](C)C(=O)N[C@@H](CCC(=O)O)C(=O)NCC(=O)N1CCC[C@H]1C(=O)N[C@@H](CO)C(=O)N[C@@H](CO)C(=O)NCC(=O)N[C@@H](C)C(=O)N1CCC[C@H]1C(=O)N1CCC[C@H]1C(=O)N1CCC[C@H]1C(=O)N[C@@H](CO)C(N)=O)C(C)C` [Compound 55] (H-Y[Aib]EGTFTSDYSIALDKK([AEEA-AEEA-γGlu-C20 diacid])AQRAFVEWLLAEGPSSGAPPPS-NH2), the EC50 in data set [1] (setting [4]) worked out at 0.016 nM; in data set [2] (setting [5]), 0.013 nM.

For the compound `CC[C@H](C)[C@H](NC(=O)[C@H](CO)NC(=O)[C@H](Cc1ccc(O)cc1)NC(=O)[C@H](CC(=O)O)NC(=O)[C@H](CO)NC(=O)[C@@H](NC(=O)[C@H](Cc1ccccc1)NC(=O)[C@@H](NC(=O)CNC(=O)[C@H](CCC(=O)O)NC(=O)C(C)(C)NC(=O)[C@@H](N)Cc1ccc(O)cc1)[C@@H](C)O)[C@@H](C)O)C(=O)N[C@@H](C)C(=O)N[C@@H](CC(C)C)C(=O)N[C@@H](CC(=O)O)C(=O)N[C@@H](CCCCN)C(=O)N[C@@H](CCCCNC(=O)COCCOCCNC(=O)COCCOCCNC(=O)CC[C@H](NC(=O)CCCCCCCCCCCCCCCCCCC(=O)O)C(=O)O)C(=O)N[C@@H](C)C(=O)N[C@@H](CCC(N)=O)C(=O)N[C@@H](CCCNC(=N)N)C(=O)N[C@@H](C)C(=O)N[C@@H](Cc1ccccc1)C(=O)N[C@H](C(=O)N[C@@H](CCC(=O)O)C(=O)N[C@@H](Cc1c[nH]c2ccccc12)C(=O)N[C@@H](CC(C)C)C(=O)N[C@@H](CC(C)C)C(=O)N[C@@H](C)C(=O)N[C@@H](CCC(=O)O)C(=O)N1CCC[C@H]1C(=O)N[C@@H](CO)C(=O)N[C@@H](CO)C(=O)NCC(=O)N[C@@H](C)C(=O)N1CCC[C@H]1C(=O)N1CCC[C@H]1C(=O)N1CCC[C@H]1C(=O)N[C@@H](CO)C(N)=O)C(C)C` [Compound 56] (H-Y[Aib]EGTFTSDYSIALDKK([AEEA-AEEA-γGlu-C20 diacid])AQRAFVEWLLAEPSSGAPPPS-NH2), the half-maximal effective concentration (EC50) in data set [1] (setting [4]) amounted to 0.025 nM; in data set [2] (setting [5]) it was 0.033 nM.

(Values after patent publication US10093713B2, “GIP-GLP-1 dual agonist compounds and methods” (priority 2013, dated 2018).)
